{
  "source": "patent US5880152A",
  "about": "“Butyrate prodrugs derived from lactic acid” (Vertex Pharmaceuticals, Inc., priority 1997, dated 1999)",
  "key": {"[1]": {"tested_on": "Fetal hemoglobin cells (F cells)", "test": "Efficacy study in anemic rhesus monkeys: % F cells", "type": "in vivo, rhesus monkey (anemic)", "method": "Each group was studied in two phases, as shown below.\nPhase I of the efficacy study.\nI 2 Hydroxyurea 50 mg/kg/day\nPhase II of the efficacy study."}, "Hemoglobin F": {"tested_on": "Hemoglobin F", "test": "Efficacy study in anemic rhesus monkeys: % Hb F (HPLC)", "type": "in vivo, rhesus monkey (anemic)", "method": "(§1) Fetal hemoglobin cells (F cells), Hemoglobin F level in total Hemoglobin (% Hb F) and % γ globin chain levels were monitored before and after each of the two phases. % F cells were measured according to the protocol described in Betke et al, Blut., 4, pp. 241-9 (1958). % Hb F and % γ globin chain synthesis were measured using High Performance Liquid Chromatography (HPLC) according to the protocol described in Huisman, J. Chromagtogr., 418, pp. 277 (1987)"}, "γ globin chain": {"tested_on": "γ globin chain", "test": "Efficacy study in anemic rhesus monkeys: % γ globin chain (HPLC)", "type": "in vivo, rhesus monkey (anemic)", "method": "as §1"}, "[2]": {"test": "Triglycerides and ALT in the efficacy study", "conditions": "three groups, prior to or during the two phases"}, "[3]": {"conditions": "rhesus monkey, in vivo"}, "fetal hemoglobin": {"tested_on": "fetal hemoglobin", "conditions": "sickle cell anemia patients; cited from earlier work"}, "[4]": {"conditions": "in vivo; cited from earlier work"}, "[5]": {"tested_on": "retinoblastoma cell lines", "conditions": "cited from earlier work"}, "pancreatic cancel cells": {"tested_on": "pancreatic cancel cells", "conditions": "pancreatic cancer cells; cited from earlier work"}, "[6]": {"tested_on": "colorectal carcinoma cell lines", "conditions": "cited from earlier work"}, "[7]": {"tested_on": "urokinase plasminogen activator and its receptor mRNA", "conditions": "colon cancer cell lines; cited from earlier work"}, "tumor, leukemia": {"tested_on": "tumor, leukemia", "conditions": "mice; cited from earlier work"}, "[8]": {"tested_on": "Cultured Erythroleukemic Cells", "conditions": "in vitro; cited from earlier work"}, "leukemia": {"tested_on": "leukemia", "conditions": "cited from earlier work"}},
  "note": "Where two headings read alike, the source gives them in different places.",
  "data": [
    {"smiles": "CCCC(=O)O[C@@H](C)C(=O)OCC", "note": "[Compound IIIc]", "values": [
      {"measurement": "change in % F cells", "setting": "[1]; Groups II and III", "value": "small but significant increase"},
      {"measurement": "change in HbF", "setting": "Hemoglobin F; Groups II and III", "value": "no measurable change"},
      {"measurement": "change in γ-globin chain levels", "setting": "γ globin chain; Groups II and III", "value": "no measurable change"},
      {"measurement": "levels of ALT", "setting": "[2]", "value": "no detectable difference"},
      {"measurement": "levels of the triglycerides", "setting": "[2]", "value": "no detectable difference"}
    ]},
    {"smiles": "NC(=O)NO", "note": "[Hydroxyurea, hydroxyurea]", "values": [
      {"measurement": "% F cell count", "setting": "[1]; animal 1, group I, end of Phase I (hydroxyurea 50 mg/kg/day, 5 weeks), before Phase I 8-10", "value": 25, "unit": "%"},
      {"measurement": "change in % Hb F", "setting": "Hemoglobin F; Group I", "value": "measurable increase"},
      {"measurement": "change in % γ-globin chain levels", "setting": "γ globin chain; Group I", "value": "measurable increase"},
      {"measurement": "levels of ALT", "setting": "[3]", "value": "no detectable difference"},
      {"measurement": "levels of the triglycerides", "setting": "[3]", "value": "no detectable difference"},
      {"measurement": "fetal hemoglobin production", "setting": "fetal hemoglobin", "value": "stimulates fetal hemoglobin production"},
      {"measurement": "sickling crisis", "setting": "fetal hemoglobin", "value": "reduces sickling crisis"},
      {"measurement": "toxicity", "setting": "[4]", "value": "potentially limited by myelotoxicity and the risk of carcinogenesis"}
    ]},
    {"smiles": "CCCC(=O)[O-].[Na+]", "note": "[Sodium butyrate]", "values": [
      {"measurement": "apoptosis", "setting": "[5]", "value": "induce apoptosis"},
      {"measurement": "antigen expression", "setting": "pancreatic cancel cells", "value": "modify antigen expression"},
      {"measurement": "apoptosis", "setting": "[6]", "value": "induce apoptosis"},
      {"measurement": "urokinase plasminogen activator and its receptor mRNA expression", "setting": "[7]", "value": "inhibit"}
    ]},
    {"smiles": "CCCC(=O)O", "note": "[arginine butyrate]", "values": [
      {"measurement": "anti-tumor and anti-leukemia effects", "setting": "tumor, leukemia", "value": "exert anti-tumor and anti-leukemia effects in mice"}
    ]},
    {"smiles": "CCCC(=O)O", "note": "[butyric acid]", "values": [
      {"measurement": "cell differentiation", "setting": "[8]", "value": "induces cell differentiation"},
      {"measurement": "effect in leukemia patients, by inducing cell differentiation", "setting": "leukemia", "value": "promising effects"}
    ]}
  ]
}
